Source: ChEMBL document CHEMBL1201862, “PubChem BioAssay data set” (2004)
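Method: 48-hour compound exposure of cells in 96-well plates, five concentrations, linear interpolation of endpoints. Abbreviation: GI50, concentration required for 50% inhibition of growth.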 The source made the active and inactive calls. No stated cut-off is given here; in the data, active = GI50 up to about 1.1 µM and inactive = higher.

Columns and labels:
Test in all cases: NCI anticancer screen, dose series, 48 h
EKVX = test system: EKVX
T47D = test system: T47D
HCT-116 = test system: HCT-116
SW-620 = test system: SW-620
OVCAR-4 = test system: OVCAR-4
DU-145 = test system: DU-145
CCRF-CEM = test system: CCRF-CEM
SK-MEL-2 = test system: SK-MEL-2
SF-268 = test system: SF-268
SK-MEL-5 = test system: SK-MEL-5
M14 = test system: M14
OVCAR-8 = test system: OVCAR-8
HT-29 = test system: HT-29
K562 = test system: K562
SNB-75 = test system: SNB-75
MDA-MB-435 = test system: MDA-MB-435
IGROV-1 = test system: IGROV-1
UO-31 = test system: UO-31
PC-3 = test system: PC-3
OVCAR-3 = test system: OVCAR-3

Row | Structure (SMILES) | GI50 (EKVX) | GI50 (T47D) | GI50 (HCT-116) | GI50 (SW-620) | GI50 (OVCAR-4) | GI50 (DU-145) | GI50 (CCRF-CEM) | GI50 (SK-MEL-2) | GI50 (SF-268) | GI50 (SK-MEL-5) | GI50 (M14) | GI50 (OVCAR-8) | GI50 (HT-29) | GI50 (K562) | GI50 (SNB-75) | GI50 (MDA-MB-435) | GI50 (IGROV-1) | GI50 (UO-31) | GI50 (PC-3) | GI50 (OVCAR-3)
1 | O=[N+]([O-])c1ccc(CSCc2ccc(Cl)cc2)cc1 | > 100 µM (inactive) | 74.3 µM (inactive) | 92.3 µM (inactive) | > 100 µM (inactive) | > 100 µM (inactive) | > 100 µM (inactive) | 14.5 µM (inactive) | > 100 µM (inactive) | > 100 µM (inactive) | > 100 µM (inactive) | > 100 µM (inactive) | > 100 µM (inactive) | 78.3 µM (inactive) | > 100 µM (inactive) | > 100 µM (inactive) | > 100 µM (inactive) | > 100 µM (inactive) | > 100 µM (inactive) | > 100 µM (inactive) | > 100 µM (inactive)
2 | Cc1c(C(=O)c2ccccc2)[n+]([O-])c2cc(Cl)c(Cl)cc2[n+]1[O-] | 13.5 µM (inactive) | 0.889 µM (active) | 13.5 µM (inactive) | – | 4.11 µM (inactive) | 16.1 µM (inactive) | 19.3 µM (inactive) | 5.92 µM (inactive) | 15.3 µM (inactive) | 15.2 µM (inactive) | 2.87 µM (inactive) | 10 µM (inactive) | 14.4 µM (inactive) | 4.01 µM (inactive) | 0.0368 µM (active) | 11.9 µM (inactive) | 1.97 µM (inactive) | 11.8 µM (inactive) | 17.4 µM (inactive) | 12.4 µM (inactive)
3 | C#CCCOC1(OC)N=NC(C)(C)O1 (stereo not given) | > 100 µM (inactive) | > 100 µM (inactive) | > 100 µM (inactive) | > 100 µM (inactive) | > 100 µM (inactive) | > 100 µM (inactive) | > 100 µM (inactive) | > 100 µM (inactive) | > 100 µM (inactive) | > 100 µM (inactive) | > 100 µM (inactive) | > 100 µM (inactive) | > 100 µM (inactive) | > 100 µM (inactive) | > 100 µM (inactive) | > 100 µM (inactive) | > 100 µM (inactive) | > 100 µM (inactive) | > 100 µM (inactive) | > 100 µM (inactive)
4 | O=[As](O)(O)c1ccc(/N=N/c2ccc(O)cc2)cc1 | > 100 µM (inactive) | > 100 µM (inactive) | > 100 µM (inactive) | > 100 µM (inactive) | > 100 µM (inactive) | > 100 µM (inactive) | > 100 µM (inactive) | > 100 µM (inactive) | > 100 µM (inactive) | > 100 µM (inactive) | > 100 µM (inactive) | > 100 µM (inactive) | > 100 µM (inactive) | 5.69 µM (inactive) | > 100 µM (inactive) | > 100 µM (inactive) | > 100 µM (inactive) | > 100 µM (inactive) | > 100 µM (inactive) | > 100 µM (inactive)
5 | O=c1c2ncn(COCCCl)c2n(-c2ccccc2)c(=S)n1-c1ccccc1 | > 100 µM (inactive) | > 100 µM (inactive) | > 100 µM (inactive) | > 100 µM (inactive) | > 100 µM (inactive) | > 100 µM (inactive) | > 100 µM (inactive) | > 100 µM (inactive) | > 100 µM (inactive) | > 100 µM (inactive) | > 100 µM (inactive) | > 100 µM (inactive) | > 100 µM (inactive) | > 100 µM (inactive) | 4.7 µM (inactive) | > 100 µM (inactive) | > 100 µM (inactive) | 57.3 µM (inactive) | > 100 µM (inactive) | > 100 µM (inactive)
6 | CCOC(=O)C(NC(=O)c1ccccc1)(N1CCN(c2cc3c(cc2F)c(=O)c(C(=O)O)cn3C2CC2)CC1)C(F)(F)F (stereo not given) | 24.9 µM (inactive) | 20.6 µM (inactive) | 17.1 µM (inactive) | 21.5 µM (inactive) | 22.5 µM (inactive) | 27.5 µM (inactive) | 3.37 µM (inactive) | 18.7 µM (inactive) | 18.1 µM (inactive) | 15.8 µM (inactive) | 19.6 µM (inactive) | 31.3 µM (inactive) | – | 20.2 µM (inactive) | 24 µM (inactive) | 21.1 µM (inactive) | 30.4 µM (inactive) | 23 µM (inactive) | 23.6 µM (inactive) | 23.4 µM (inactive)
7 | c1ccc(COC2NCCN2Cc2ccccc2)cc1 (stereo not given) | 51.2 µM (inactive) | > 100 µM (inactive) | > 100 µM (inactive) | > 100 µM (inactive) | > 100 µM (inactive) | > 100 µM (inactive) | > 100 µM (inactive) | > 100 µM (inactive) | > 100 µM (inactive) | > 100 µM (inactive) | > 100 µM (inactive) | > 100 µM (inactive) | > 100 µM (inactive) | > 100 µM (inactive) | 97.7 µM (inactive) | > 100 µM (inactive) | > 100 µM (inactive) | > 100 µM (inactive) | > 100 µM (inactive) | > 100 µM (inactive)
8 | Cn1c2ccccc2c2c(-c3ccccc3)[n+]3ccccc3nc21 | 36.1 µM (inactive) | 51.5 µM (inactive) | – | 23.2 µM (inactive) | 61.7 µM (inactive) | 53.3 µM (inactive) | 30.5 µM (inactive) | 20.2 µM (inactive) | 18.5 µM (inactive) | 16.8 µM (inactive) | 18.1 µM (inactive) | 36.3 µM (inactive) | 53.7 µM (inactive) | 34 µM (inactive) | 19.5 µM (inactive) | 20.6 µM (inactive) | 26.7 µM (inactive) | > 100 µM (inactive) | 26.2 µM (inactive) | 23.3 µM (inactive)
9 | CN1C=Cc2nccc3cc4c(c1c23)OCO4 | 1.85 µM (inactive) | 6.82 µM (inactive) | 1.5 µM (inactive) | 3.64 µM (inactive) | 5.22 µM (inactive) | 5.78 µM (inactive) | 1.39 µM (inactive) | 3.18 µM (inactive) | 3.06 µM (inactive) | 2.06 µM (inactive) | 3.56 µM (inactive) | 5.68 µM (inactive) | 2 µM (inactive) | 1.89 µM (inactive) | 1.49 µM (inactive) | 3.25 µM (inactive) | > 20.7 µM (inactive) | 2.96 µM (inactive) | 3.21 µM (inactive) | 5.53 µM (inactive)
10 | O=C1c2ccccc2C2(c3ccc(Cl)cc3)N[C@@H]3CCCC[C@@H]3N12 (stereo not given in full) | > 100 µM (inactive) | > 100 µM (inactive) | > 100 µM (inactive) | > 100 µM (inactive) | > 100 µM (inactive) | > 100 µM (inactive) | > 100 µM (inactive) | > 100 µM (inactive) | > 100 µM (inactive) | > 100 µM (inactive) | > 100 µM (inactive) | > 100 µM (inactive) | – | > 100 µM (inactive) | > 100 µM (inactive) | > 100 µM (inactive) | > 100 µM (inactive) | > 100 µM (inactive) | > 100 µM (inactive) | > 100 µM (inactive)
11 | CN(C(=O)Cc1cc(Cl)c(Cl)cc1NC(=O)CN)[C@H]1CCCC[C@@H]1N1CCCC1 | > 100 µM (inactive) | 25.7 µM (inactive) | 30 µM (inactive) | 62.7 µM (inactive) | > 100 µM (inactive) | > 100 µM (inactive) | 27.5 µM (inactive) | 18.8 µM (inactive) | 77.1 µM (inactive) | – | 18.2 µM (inactive) | 88.3 µM (inactive) | 20.7 µM (inactive) | 24.7 µM (inactive) | 20.7 µM (inactive) | 16.1 µM (inactive) | > 100 µM (inactive) | 33.8 µM (inactive) | 37.1 µM (inactive) | 38.8 µM (inactive)
12 | CC(NC(=O)C1(N)CCCC1)C(=O)O (stereo not given) | > 100 µM (inactive) | > 100 µM (inactive) | > 100 µM (inactive) | > 100 µM (inactive) | > 100 µM (inactive) | > 100 µM (inactive) | > 100 µM (inactive) | > 100 µM (inactive) | > 100 µM (inactive) | > 100 µM (inactive) | > 100 µM (inactive) | > 100 µM (inactive) | > 100 µM (inactive) | > 100 µM (inactive) | > 100 µM (inactive) | > 100 µM (inactive) | > 100 µM (inactive) | > 100 µM (inactive) | > 100 µM (inactive) | > 100 µM (inactive)
13 | CC(C)C(OC(=O)c1ccc(NCC2=CC(=O)C=CC2=O)cc1)C(C)C | 8.26 µM (inactive) | 2.1 µM (inactive) | 11.7 µM (inactive) | 6.76 µM (inactive) | 3.64 µM (inactive) | 18.4 µM (inactive) | 0.474 µM (active) | 11.6 µM (inactive) | 12.1 µM (inactive) | 10.6 µM (inactive) | 6.52 µM (inactive) | 3.03 µM (inactive) | 10.7 µM (inactive) | 3.66 µM (inactive) | 4.35 µM (inactive) | 4.75 µM (inactive) | 1.81 µM (inactive) | 1.82 µM (inactive) | 8.09 µM (inactive) | 4.12 µM (inactive)
14 | CC[C@@H](/C=C\CCC(=O)C[C@H](O)CCC=C(C)C)O[Si](C(C)C)(C(C)C)C(C)C | > 100 µM (inactive) | 55.5 µM (inactive) | > 100 µM (inactive) | > 100 µM (inactive) | > 100 µM (inactive) | > 100 µM (inactive) | 80.4 µM (inactive) | 42.9 µM (inactive) | > 100 µM (inactive) | 69 µM (inactive) | > 100 µM (inactive) | > 100 µM (inactive) | 52.6 µM (inactive) | 54.5 µM (inactive) | > 100 µM (inactive) | > 100 µM (inactive) | > 100 µM (inactive) | > 100 µM (inactive) | 75.5 µM (inactive) | > 100 µM (inactive)
